Experimental data as given in ChEMBL document CHEMBL1157278, “A new sesquiterpene as an antifouling substance from a palauan marine sponge, dysidea herbacea” (1999).
Activity calls are given as the source filed them. The rule behind the calls is not given here.

Tests used:
Mytilus edulis [1] = assay: Antifouling activity in Mytilus edulis galloprovincialis assessed as foot contraction at 100 ppm; assay type: functional
Mytilus edulis [2] = assay: Antifouling activity in Mytilus edulis galloprovincialis assessed as foot contraction at <10 ppm; assay type: functional, organism-based

Which Activity (Mytilus edulis [1]) does the source give for C=C1[C@@H](C)C[C@H]2C[C@]1(C)CCC1=CC(=O)O[C@@]12O here?
The Activity was 100%.

And the Activity (Mytilus edulis [2])?
The Activity was “inactive”.
